Reference: patent publication US12286661B2, “Methods for making high intensity sweeteners” (Firmenich Incorporated, priority 2018, dated 2025)
“Also recorded” adds a separate entry of the source.

Columns and labels:
S. cerevisiae = experiment: Hydrolysis by hydrolytic enzymes of yeast grown in the presence of the compound, HPLC of lysed cells; assay type: cell-based; conditions: for mogroside content after incubation: S. cerevisiae
Experimental: (§1) S. cerevisiae or Y. lipolytica was grown in the presence of Mogroside V to allow the hydrolytic enzymes in the yeast to generate Mogroside IIIE. After 1 or 2 days, the cells were lysed in analyzed by HPLC to determine the mogroside content.
(§2) S. cerevisiae or Y. lipolytica was grown in the presence of Compound 1.

Y. lipolytica = experiment: as above; assay type: cell-based
Experimental: as §1, §2

[1] = test system: Saccharomyces cerevisiae, Yarrowia lipolytica and Candida bombicola; experiment: Tolerance to microbial hydrolysis: yeast strains incubated in YPD with 1 mg/ml compound, supernatants analysed by HPLC; assay type: cell-based; conditions: after 3 days
Experimental: Yeast strains Saccharomyces cerevisiae, Yarrowia lipolytica and Candida bombicola, were incubated in YPD supplemented with 1 mg/ml Mogroside V or Compound 1. After 3 days, supernatants were analyzed by HPLC.

cucurbitadienol = experiment: 11-OH cucurbitadienol production from cucurbitadienol by CYP450s expressed in S. cerevisiae, LCMS; assay type: cell-based; conditions: S. cerevisiae strain producing cucurbitadienol and expressing SgCPR; LCMS peak area of product vs. internal reference; hits over vector only control
Source text: (§3) DNA was obtained through gene synthesis either through Genescript, IDT, or Genewiz. For some of the cucurbitadienol synthases, cDNA or genomic DNA was obtained through 10-60 day old seedlings followed by PCR amplification using specific and degenerate primers. DNA was cloned through standard molecular biology techniques or through yeast gap repair cloning (Joska et al., 2014) into one of the following overexpression vectors: pESC-Ura, pESC-His, or pESC-LEU. Gene expression was regulated by one of the following promoters; Gall, Gal10, Tef1, or GDS. Yeast transformation was performed using Zymo Yeast Transformation Kit II. Yeast strains were grown in standard media (YPD or SC) containing the appropriate selection with 2% glucose or 2% galactose for induction of heterologous genes. Yeast strains were grown in shake flask or 96 well plates at 30° ° C., 140-250 rpm. When indicated, lanosterol synthase inhibitor, Ro 48-8071 (Cayman Chemicals) was added (50 ug/ml). Yeast samples producing mogrol precursors, mogrol and mogrosides were processed through one of the following: • Cucurbitadienol and 11-OH Cucurbitadienol: Samples cell pellets were lysed (Yeast Buster) followed by ethyl acetate extraction, drying, and resuspension in methanol. • ·Mogrol and Mogrosides: Samples cell pellets were lysed in 50% ETOH, incubated at 80° C. for 30 min, filtered, dried and resuspended in MeOH for LCMS screening.
For analyzing 11-OH cucurbitadienol, the LCMS method included the use of C8 2.1×100 mm column, gradient 60 to 90% B for 6 minutes at flow rate of 0.55 ml/min. For the enzyme screening, the LCMS method used was a Waters Acquity UPLC Protein BEH C4, 2.1×100 mm, 1.7 μm column and a gradient of 40% to 80% over 5 minutes, 95% B from 5.1 to 5.6 minutes with a flow rate of 0.55 ml/min, and ESI source positive mode single ion monitoring of 425.4.
Additional CYP450s were expressed in S. cerevisiae strain producing cucurbitadienol and expressing SgCPR. DNA and protein sequences for the CYP450 enzymes are shown in SEQ IDs 871-890 and 1024-1049 (see Table 1).

[2] = test system: cucurbitadienol synthase activity; experiment: Cucurbitadienol synthase activities of fusion proteins in yeast strain with oxidosqualene boost, LCMS; assay type: cell-based, S. cerevisiae; conditions: average % activities over the average activities of the parent enzyme (Cucumis melo cucurbitadienol synthase)
Experimental: For analyzing cucurbitadienol, the first LCMS method included the use of C4 2.1×100 mm column, gradient 1 to 95% B for 6 minutes, and at flow rate of 0.55 ml/min; and the second LCMS method included the use of Waters Acquity UPLC Protein BEH C4 2.1×100 […], 1.7 μm, with guard, 62 to 67% B for 2 min, 100% B for 1 min, and at flow rate of 0.9 ml/min and ESI source positive single ion monitoring of 427 and 409.
The gene encoding for a cucurbitadienol synthase form Cucumis melo was codon optimized (SEQ ID: 907) and used as a starting point for generating a library of modifications. Modifications were introduced through standard molecular biology techniques consisting of fusion peptides at the N-terminus (i.e., 5′) or C-terminus (i.e., 3′) end of the enzyme. Plasmids libraries of modified cucurbitadienol synthase genes were transformed into a yeast strain with oxidosqualene boost. Enzyme activities were measured by ratios of peak heights or areas of 409 and 427 positive mass fragments at the expected retention times for cucurbitadienol vs. an internal standard using LCMS method 2 described above. Enzyme performance were scored as average % activities over the average activities of the parent enzyme (n=8). Step 1 sequences of the enzymes and the sequences that encode the enzyme can be found in SEQ ID NOs: 951-1012. Step 1 sequence also include the fusions SS2c-G10, SS2e-A7b, SS2d-G11. […]

mogrol precursors = experiment: Mogrol production by EPHs tested in a yeast strain producing mogrol precursors; assay type: cell-based
Source text: as §3, with “Yeast samples producing mogrol precursors, mogrol and mogrosides were processed through one of the following: • Cucurbitadienol and 11-OH Cucurbitadienol: Samples cell pellets were lysed (Yeast Buster) followed by ethyl acetate extraction, drying, and resuspension in methanol. • ·Mogrol and Mogrosides: Samples cell pellets were lysed in 50% ETOH, incubated at 80° C. for 30 min, filtered, dried and resuspended in MeOH for LCMS screening.” left out

## C[C@H](CC[C@@H](O[C@@H]1O[C@H](CO[C@H]2O[C@H](CO)[C@@H](O)[C@H](O)[C@H]2O)[C@@H](O)[C@H](O)[C@H]1O[C@@H]1O[C@H](CO)[C@@H](O)[C@H](O)[C@H]1O)C(C)(C)O)C1CC[C@@]2(C)C3CC=C4C(CC[C@H](O[C@@H]5O[C@H](CO)[C@@H](O)[C@H](O)[C@H]5O)C4(C)C)[C@]3(C)[C@H](O)C[C@]12C (some centres unmarked) [Compound 1]
S. cerevisiae; S. cerevisiae grown in the presence of the compound
  hydrolysis products: no hydrolysis products due to hydrolysis of Compound 1 was observed; also recorded: no hydrolysis product from Compound 1 was detected
Y. lipolytica; Y. lipolytica grown in the presence of the compound
  hydrolysis products: no hydrolysis products due to hydrolysis of Compound 1 was observed; also recorded: no hydrolysis product from Compound 1 was detected
[1]
  hydrolysis by yeast strains (hydrolysis products by HPLC): no hydrolysis products observed; also recorded: tolerance of Compound 1 to hydrolysis by microbial enzymes

## C[C@H](CC[C@@H](O[C@@H]1O[C@H](CO[C@@H]2O[C@H](CO)[C@@H](O)[C@H](O)[C@H]2O)[C@@H](O)[C@H](O)[C@H]1O[C@@H]1O[C@H](CO)[C@@H](O)[C@H](O)[C@H]1O)C(C)(C)O)[C@H]1CC[C@@]2(C)[C@@H]3CC=C4[C@@H](CC[C@H](O[C@@H]5O[C@H](CO[C@@H]6O[C@H](CO)[C@@H](O)[C@H](O)[C@H]6O)[C@@H](O)[C@H](O)[C@H]5O)C4(C)C)[C@]3(C)[C@H](O)C[C@]12C [Mogroside V, reference compound]
S. cerevisiae; 1 day of incubation
  mogroside content after incubation: produced a mixture of Mogroside V, Mogrosides IV, and Mogroside IIIE
S. cerevisiae; 2 days of incubation
  mogroside content after incubation: substantially all of the mogrosides were converted to Mogroside IIIE
Y. lipolytica; Y. lipolytica, 2 days of incubation
  mogroside content after incubation: produced mostly Mogroside IIIE
[1]
  hydrolysis by yeast strains (hydrolysis products by HPLC): hydrolyzed Mogroside V to Mogroside IIIE

B1: SEQ ID NO. 1048/1049: CYP450 enzyme (DNA/protein SEQ ID NO) producing 11-OH cucurbitadienol (protein, listed as Siraitia grosvenorii)
chain: MWLLLIGAIVVLSFTRWLYGWKNPKCNGKLPPGSMGFPLLGETLQFFSPNTSSDVPPFIRKRMDRYGPIFRTNLVGRPLIVSTDSDLNYFIFQQEGQLFQSWYPDTFTEIFGRQNVGSLHGFMYKYLKNMVLHLFGPESLRKMIPEVEAAATRRLRQWSSHNTVELKDETASMIFDLTAKKLISYDLESSSENLRDNFVAFIQGLISFPLNVPGTAYHKCLQGRKRAMRMLKNMLQERRANPRKQQIDFFDFVLEELEKDGTLLTEEIALDLMFVLLFASFETTSLALTAAIKFLLDNPHVLEELTAEHEGILKRRENADSGLTWGEYKSMTFTFQFINETVRLANIVPGIFRKALRDIQFKGYTIPAGWAVMVCPPAVHLNPEKYIDPLAFNPWRWEKSELNGASKHFMAFGGGMRFCVGTDFTKVQMAVFLHCLVTKYRFKAIKGGNIIRTPGLQFPNGFHIQITEK
cucurbitadienol
  Peak Area 11-OH CCB: 0.2083

B2: SEQ ID NO. 1024/1025: CYP450 enzyme (DNA/protein SEQ ID NO) producing 11-OH cucurbitadienol (protein, listed as Citrullus lanatus)
chain: MWTILLGLATLAIAYYIHWVNKWKDSKFNGVLPPGTMGLPLIGETIQLSRPSDSLDVHPFIQSKVKRYGPIFKTCLAGRPVVVSTDAEFNHYIMLQEGRAVEMWYLDTLSKFFGLDTEWLKALGLIHKYIRSITLNHFGAESLRERFLPRIEESARETLHYWSTQPSVEVKESAAAMVFRTSIVKMFSEDSSKLLTGGLTKKFTGLLGGFLTLPLNLPGTTYNKCIKDMKEIQKKLKDILEERLAKGTGNDEDFLGQAIKDKESQQFISEEFIIQLLFSISFASFESISTSLTLILKFLADHPQVVKELEAEHEAIQKARADPDGPITWEEYKSMTFTLNVISETLRLGSVTPALLRKTTKEIQIKGYTIPEGWTVMLVTASRHRDPEVYKDPDTFNPWRWKELDSITVQKNFMPFGGGLRHCAGAEYSKVYLCTFLHILFTKYRWTKLKGGKIARAHILRFEDGLHVKFTPKE
cucurbitadienol
  Peak Area 11-OH CCB: 1.231

B3: SEQ ID NO 1024: fusion protein having cucurbitadienol synthase activity (protein, listed as Citrullus lanatus)
chain: MWTILLGLATLAIAYYIHWVNKWKDSKFNGVLPPGTMGLPLIGETIQLSRPSDSLDVHPFIQSKVKRYGPIFKTCLAGRPVVVSTDAEFNHYIMLQEGRAVEMWYLDTLSKFFGLDTEWLKALGLIHKYIRSITLNHFGAESLRERFLPRIEESARETLHYWSTQPSVEVKESAAAMVFRTSIVKMFSEDSSKLLTGGLTKKFTGLLGGFLTLPLNLPGTTYNKCIKDMKEIQKKLKDILEERLAKGTGNDEDFLGQAIKDKESQQFISEEFIIQLLFSISFASFESISTSLTLILKFLADHPQVVKELEAEHEAIQKARADPDGPITWEEYKSMTFTLNVISETLRLGSVTPALLRKTTKEIQIKGYTIPEGWTVMLVTASRHRDPEVYKDPDTFNPWRWKELDSITVQKNFMPFGGGLRHCAGAEYSKVYLCTFLHILFTKYRWTKLKGGKIARAHILRFEDGLHVKFTPKE
[2]
  Activity (as compared to the parent): 166%

B4: SEQ ID NO. 1072 and 1073: epoxide hydrolase (EPH); coding DNA and protein sequence (protein)
chain: MDAIQHTTIKTNGIKMHIASVGNGPVVLLLHGFPELWYSWRHQLLYLSSVGYRAIAPDLRGYGDTDSPESHTSYTALHIVGDLVGALDELGIEKVFLVGHDWGAIIAWYFCLFRPERIKALVNLSVQFFPRNPAISFIQRFRAAYGDDFYMCRFQVPGEAEADFACIDTAQLFKTTLSNRSTKAPCLPKEYGFRAIPPPENLPSWLTEEDINYYAAKFKETGFTGALNYYRAFDLTWELTAPWTGVQIQVPVKFIVGDSDLTYHFKGAKEYIHEGGFKRDVPLLEEVVIVENAGHFVHEEKPHEINTHIHDFIKKF
modifications: Cucumis melo
Mogrol precursors
  ability to produce mogrol: showed the ability to produce mogrol
